# Assay results from article PMC9030254, “Target Hopping from Protein Kinases to PXR: Identification of Small-Molecule Protein Kinase Inhibitors as Selective Modulators of Pregnane X Receptor from TüKIC Library” (Cells, 2022).
# Tests used:
# Test in all cases: Kinase profiling
# Assay type in all cases: biochemical
# [1] = target: T1, ERBB4 (Homo sapiens, UniProt Q15303)
# T1 construct: purchased ProQinase (Freiburg, Germany)
# Protocol: (§1) The analysis was performed by ProQinase (Freiburg, Germany).
# [2] = target: T2, PKCmu (Homo sapiens, UniProt Q15139)
# T2 construct: purchased ProQinase (Freiburg, Germany)
# T2 sequence (Q15139 1-912): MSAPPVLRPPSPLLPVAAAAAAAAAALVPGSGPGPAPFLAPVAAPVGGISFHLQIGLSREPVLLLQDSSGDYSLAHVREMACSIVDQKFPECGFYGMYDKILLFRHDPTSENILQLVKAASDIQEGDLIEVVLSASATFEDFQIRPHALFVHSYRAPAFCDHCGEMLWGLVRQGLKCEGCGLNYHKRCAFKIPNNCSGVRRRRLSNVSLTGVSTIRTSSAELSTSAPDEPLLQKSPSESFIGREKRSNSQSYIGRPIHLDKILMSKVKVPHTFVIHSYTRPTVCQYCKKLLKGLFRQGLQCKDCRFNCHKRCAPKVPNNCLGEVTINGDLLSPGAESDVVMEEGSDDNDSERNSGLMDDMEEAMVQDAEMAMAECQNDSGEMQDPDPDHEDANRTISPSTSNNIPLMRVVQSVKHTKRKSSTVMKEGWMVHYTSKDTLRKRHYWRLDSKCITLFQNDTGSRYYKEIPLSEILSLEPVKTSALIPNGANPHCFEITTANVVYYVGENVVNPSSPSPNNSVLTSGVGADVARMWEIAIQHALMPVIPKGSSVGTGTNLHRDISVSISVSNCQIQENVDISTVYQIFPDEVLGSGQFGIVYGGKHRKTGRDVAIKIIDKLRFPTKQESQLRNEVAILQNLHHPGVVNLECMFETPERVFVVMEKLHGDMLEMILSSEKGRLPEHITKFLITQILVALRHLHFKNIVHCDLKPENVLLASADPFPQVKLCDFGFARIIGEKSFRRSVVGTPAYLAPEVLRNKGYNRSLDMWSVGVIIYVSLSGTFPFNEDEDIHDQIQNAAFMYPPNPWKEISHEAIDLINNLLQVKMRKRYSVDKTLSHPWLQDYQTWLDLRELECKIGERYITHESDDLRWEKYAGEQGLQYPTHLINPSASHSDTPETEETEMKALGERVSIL
# Protocol: as §1
# [3] = target: T3, DYRK4 (Homo sapiens, UniProt Q9NR20)
# T3 construct: purchased ProQinase (Freiburg, Germany)
# T3 sequence (Q9NR20 1-520): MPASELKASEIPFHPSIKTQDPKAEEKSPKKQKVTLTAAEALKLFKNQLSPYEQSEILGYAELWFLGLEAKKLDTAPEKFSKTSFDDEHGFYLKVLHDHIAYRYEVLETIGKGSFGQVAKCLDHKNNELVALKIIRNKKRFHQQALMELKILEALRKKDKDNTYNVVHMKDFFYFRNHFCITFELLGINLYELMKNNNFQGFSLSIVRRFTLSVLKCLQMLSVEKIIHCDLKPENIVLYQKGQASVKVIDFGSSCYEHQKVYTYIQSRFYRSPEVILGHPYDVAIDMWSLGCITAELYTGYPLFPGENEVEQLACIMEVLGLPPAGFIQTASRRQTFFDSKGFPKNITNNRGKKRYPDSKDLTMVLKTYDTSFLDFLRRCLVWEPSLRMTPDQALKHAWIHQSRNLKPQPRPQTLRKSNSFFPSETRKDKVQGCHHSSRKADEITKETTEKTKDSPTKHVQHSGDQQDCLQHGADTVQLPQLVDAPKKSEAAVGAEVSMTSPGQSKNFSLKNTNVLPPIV
# Protocol: as §1
# [4] = target: T4, CHK1 (Homo sapiens, UniProt O14757)
# T4 construct: purchased ProQinase (Freiburg, Germany)
# T4 sequence (O14757 1-476): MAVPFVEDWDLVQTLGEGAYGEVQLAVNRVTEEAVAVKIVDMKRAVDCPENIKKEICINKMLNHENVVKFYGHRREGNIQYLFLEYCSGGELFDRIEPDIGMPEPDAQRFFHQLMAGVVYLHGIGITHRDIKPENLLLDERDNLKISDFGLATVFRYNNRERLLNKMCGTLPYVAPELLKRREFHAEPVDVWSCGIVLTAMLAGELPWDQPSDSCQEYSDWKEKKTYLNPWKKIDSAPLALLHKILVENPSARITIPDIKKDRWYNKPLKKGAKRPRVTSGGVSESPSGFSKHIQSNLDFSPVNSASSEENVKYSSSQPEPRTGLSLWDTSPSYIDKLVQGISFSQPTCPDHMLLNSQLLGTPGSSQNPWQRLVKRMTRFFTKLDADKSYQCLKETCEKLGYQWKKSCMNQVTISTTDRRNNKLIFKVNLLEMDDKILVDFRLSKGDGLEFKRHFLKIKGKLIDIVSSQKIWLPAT
# Protocol: as §1
# [5] = target: T5, PLK1 (Homo sapiens, UniProt P53350)
# T5 construct: purchased ProQinase (Freiburg, Germany)
# Protocol: as §1
# [6] = target: T6, NEK7 (Homo sapiens, UniProt Q8TDX7)
# T6 construct: purchased ProQinase (Freiburg, Germany)
# Protocol: as §1
# [7] = target: T7, BRSK1 (Homo sapiens, UniProt Q8TDC3)
# T7 construct: purchased ProQinase (Freiburg, Germany)
# T7 sequence (Q8TDC3 1-778): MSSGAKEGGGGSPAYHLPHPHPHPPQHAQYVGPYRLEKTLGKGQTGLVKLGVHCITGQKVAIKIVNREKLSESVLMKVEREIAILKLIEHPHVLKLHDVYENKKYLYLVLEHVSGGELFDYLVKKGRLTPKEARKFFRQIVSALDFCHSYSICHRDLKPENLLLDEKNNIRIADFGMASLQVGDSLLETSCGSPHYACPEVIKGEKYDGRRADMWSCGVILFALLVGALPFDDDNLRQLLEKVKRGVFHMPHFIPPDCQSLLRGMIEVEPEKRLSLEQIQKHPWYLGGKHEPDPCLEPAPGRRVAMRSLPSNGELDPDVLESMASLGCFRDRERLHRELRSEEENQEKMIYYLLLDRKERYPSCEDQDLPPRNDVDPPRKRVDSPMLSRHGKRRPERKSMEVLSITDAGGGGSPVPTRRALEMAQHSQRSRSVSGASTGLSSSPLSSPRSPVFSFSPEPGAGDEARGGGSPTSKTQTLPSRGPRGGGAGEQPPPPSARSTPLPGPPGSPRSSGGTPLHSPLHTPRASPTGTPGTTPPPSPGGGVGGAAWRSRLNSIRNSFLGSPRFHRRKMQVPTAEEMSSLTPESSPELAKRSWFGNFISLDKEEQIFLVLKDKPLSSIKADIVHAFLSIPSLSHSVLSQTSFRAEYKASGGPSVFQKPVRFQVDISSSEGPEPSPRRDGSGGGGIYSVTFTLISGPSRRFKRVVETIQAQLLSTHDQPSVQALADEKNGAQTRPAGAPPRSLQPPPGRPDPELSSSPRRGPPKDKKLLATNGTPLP
# Protocol: as §1
# T1 sequence (Q15303 26-1308): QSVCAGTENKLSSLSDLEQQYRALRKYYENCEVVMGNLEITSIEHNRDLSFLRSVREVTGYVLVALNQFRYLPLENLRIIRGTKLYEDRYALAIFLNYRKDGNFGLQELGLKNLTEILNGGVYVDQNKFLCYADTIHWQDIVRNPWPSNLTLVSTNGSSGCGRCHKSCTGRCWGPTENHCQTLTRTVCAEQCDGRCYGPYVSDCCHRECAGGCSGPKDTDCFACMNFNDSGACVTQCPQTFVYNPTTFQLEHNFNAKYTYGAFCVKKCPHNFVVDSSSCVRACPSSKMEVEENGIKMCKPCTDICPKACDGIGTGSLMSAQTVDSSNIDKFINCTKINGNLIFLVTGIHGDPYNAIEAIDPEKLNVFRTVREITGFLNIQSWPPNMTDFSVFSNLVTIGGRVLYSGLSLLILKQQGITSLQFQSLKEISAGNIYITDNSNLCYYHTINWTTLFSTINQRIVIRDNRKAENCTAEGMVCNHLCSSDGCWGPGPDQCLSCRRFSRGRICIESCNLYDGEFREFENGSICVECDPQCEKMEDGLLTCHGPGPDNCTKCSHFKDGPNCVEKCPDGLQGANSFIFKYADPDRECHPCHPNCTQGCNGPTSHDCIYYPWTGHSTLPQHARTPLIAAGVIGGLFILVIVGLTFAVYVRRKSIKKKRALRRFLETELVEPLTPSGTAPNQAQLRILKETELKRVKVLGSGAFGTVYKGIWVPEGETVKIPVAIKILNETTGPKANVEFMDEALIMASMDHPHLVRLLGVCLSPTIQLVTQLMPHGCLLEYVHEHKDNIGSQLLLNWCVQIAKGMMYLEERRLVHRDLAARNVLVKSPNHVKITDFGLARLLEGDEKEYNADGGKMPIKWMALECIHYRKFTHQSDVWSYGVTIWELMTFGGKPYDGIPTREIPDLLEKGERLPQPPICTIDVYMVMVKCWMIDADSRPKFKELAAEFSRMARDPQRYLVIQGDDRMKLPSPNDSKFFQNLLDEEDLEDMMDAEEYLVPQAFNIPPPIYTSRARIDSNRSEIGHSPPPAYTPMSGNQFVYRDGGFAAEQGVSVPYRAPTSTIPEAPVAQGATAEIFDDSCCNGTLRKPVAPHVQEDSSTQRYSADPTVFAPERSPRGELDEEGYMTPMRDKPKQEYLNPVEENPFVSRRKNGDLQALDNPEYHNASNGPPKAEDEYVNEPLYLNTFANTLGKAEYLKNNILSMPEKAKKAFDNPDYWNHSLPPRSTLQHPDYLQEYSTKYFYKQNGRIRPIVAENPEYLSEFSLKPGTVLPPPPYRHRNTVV
# T6 sequence (Q8TDX7 whole entry): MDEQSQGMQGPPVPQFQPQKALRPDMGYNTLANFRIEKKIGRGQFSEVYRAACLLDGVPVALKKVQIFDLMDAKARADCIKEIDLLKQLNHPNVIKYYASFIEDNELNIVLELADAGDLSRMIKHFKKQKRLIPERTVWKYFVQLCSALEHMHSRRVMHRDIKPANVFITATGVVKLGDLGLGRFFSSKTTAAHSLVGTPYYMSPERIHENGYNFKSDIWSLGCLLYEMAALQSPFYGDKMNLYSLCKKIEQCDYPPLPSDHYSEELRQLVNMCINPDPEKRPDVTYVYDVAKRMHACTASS
# T5 sequence (P53350 whole entry): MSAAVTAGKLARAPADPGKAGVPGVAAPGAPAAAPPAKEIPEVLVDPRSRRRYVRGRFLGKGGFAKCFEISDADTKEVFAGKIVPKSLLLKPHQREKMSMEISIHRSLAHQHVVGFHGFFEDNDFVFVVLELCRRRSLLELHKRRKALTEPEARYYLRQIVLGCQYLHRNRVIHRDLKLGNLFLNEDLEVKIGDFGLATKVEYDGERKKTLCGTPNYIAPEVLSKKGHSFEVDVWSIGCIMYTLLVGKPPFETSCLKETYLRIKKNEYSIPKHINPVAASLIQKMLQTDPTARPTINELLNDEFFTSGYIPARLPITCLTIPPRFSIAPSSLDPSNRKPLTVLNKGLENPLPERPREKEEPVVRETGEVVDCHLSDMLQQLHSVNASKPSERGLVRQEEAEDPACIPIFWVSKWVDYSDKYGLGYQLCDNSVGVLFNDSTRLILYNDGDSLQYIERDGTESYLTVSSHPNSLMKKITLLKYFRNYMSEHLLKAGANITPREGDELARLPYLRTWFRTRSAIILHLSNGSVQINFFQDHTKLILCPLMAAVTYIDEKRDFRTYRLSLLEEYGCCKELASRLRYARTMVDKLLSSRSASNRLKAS
Compound,Residual activity ([1]; 1.0E-05 M),Residual activity ([1]; 1.0E-06 M),Residual activity ([2]; 1.0E-05 M),Residual activity ([2]; 1.0E-06 M),Residual activity ([3]; 1.0E-05 M),Residual activity ([3]; 1.0E-06 M),Residual activity ([4]; 1.0E-05 M),Residual activity ([4]; 1.0E-06 M),Residual activity ([5]; 1.0E-05 M),Residual activity ([5]; 1.0E-06 M),Residual activity ([6]; 1.0E-05 M),Residual activity ([6]; 1.0E-06 M),Residual activity ([7]; 1.0E-05 M),Residual activity ([7]; 1.0E-06 M)
O=C(Cc1ccccc1)Nc1ccc(F)c(Nc2ccc3c(c2)CCCCC3=O)c1 [Compound 100],71 % of control,97 % of control,94 % of control,106 % of control,94 % of control,98 % of control,91 % of control,91 % of control,90 % of control,103 % of control,118 % of control,109 % of control,91 % of control,101 % of control
O=C(Nc1ccc(F)c(Nc2ccc3c(c2)CCCCC3=O)c1)c1cccc(F)c1 [Compound 109],81 % of control,98 % of control,96 % of control,95 % of control,87 % of control,89 % of control,90 % of control,88 % of control,96 % of control,94 % of control,121 % of control,108 % of control,92 % of control,92 % of control
